# Earlier results, collected in PubChem BioAssay AID1259409 (Chemical Carcinogenesis Research Information System (CCRIS), 2018).
# Tested on: rodent chemically induced tumor inhibition, incidence and multiplicity
# Assay: CCRIS tumor inhibitor studies
# Description: The CCRIS database contains chemical records with carcinogenicity, mutagenicity, tumor promotion, and tumor inhibition test results. It was developed by the National Cancer Institute (NCI). Data are derived from studies cited in primary journals, current awareness tools, NCI reports, and other sources. Test results have been reviewed by experts in carcinogenesis and mutagenesis.
# CCRIS provides historical information from the years 1985 - 2011. It is no longer updated.
# This is an archive assay for CCRIS tumor inhibitor studies.
smiles,measurement,setting,value
CC1=C(/C=C/C(C)=C/C=C/C(C)=C\C(=O)O)C(C)(C)CCC1,"tumour outcome (control, treated, inhibition, significance)","Carcinogen: AZOXYMETHANE, 25843-45-2, Dose [Inhibitor]: 50 MG/KG IN DIET DAILY FOR 26 WK STARTING SIMULTANEOUSLY WITH CARCINOGEN TREATMENT (STUDY DURATION: 26 WK), Route [Inhibitor]: ORAL, Species: RAT, Strain/Sex: SPRAGUE-DAWLEY/MALE, Target Tissue: Type of Lesion: SMALL INTESTINE: TUMOR, Dose [Carcinogen]: 8 MG/KG BW 1/WK FOR 8 WK, Promoter: NONE USED","90%, 83%, 8%, not significant"
same,"tumour outcome (control, treated, inhibition, significance)","Carcinogen: BENZO[A]PYENE, 50-32-8, Dose [Inhibitor]: 17 NMOL 2/WK 0.5 HR BEFORE EACH PROMOTER APPLICATION FOR 24 WK STARTING 7 D AFTER CARCINOGEN APPLICATION (STUDY DURATION, Route [Inhibitor]: DERMAL, Species: MOUSE, Strain/Sex: SENCAR, Target Tissue: Type of Lesion: SKIN: PAPILLOMA, Dose [Carcinogen]: 400 NMOL ONCE, Promoter: ANTHRALIN, 1143-38-0","73%, 83%, -14%, not significant"
same,"tumour outcome (control, treated, inhibition, significance)","Carcinogen: BENZO[A]PYENE, 50-32-8, Dose [Inhibitor]: 34 NMOL ONCE 0.5 HR BEFORE CARCINOGEN APPLICATION (STUDY DURATION: 25 WK), Route [Inhibitor]: DERMAL, Species: MOUSE, Strain/Sex: CD-1/FEMALE, Target Tissue: Type of Lesion: SKIN: PAPILLOMA, Dose [Carcinogen]: 200 NMOL IN 0.2 ML ACETONE ONCE 0.5 HR AFTER AGENT TREATMENT, Promoter: 12-O-TETRADECANOYLPHORBOL-13-ACETATE, 16561-29-8","90%, 98%, -9%, not significant"
same,"tumour outcome (control, treated, inhibition, significance)","Carcinogen: BENZO[A]PYRENE, 50-32-8, Dose [Inhibitor]: 0, 240 MG/KG OF DIET FOR 6 WK (STUDY DURATION: 9 WK), Route [Inhibitor]: ORAL, Species: MOUSE, Strain/Sex: NIGP(S)/FEMALE, Target Tissue: Type of Lesion: LUNG: ADENOMA, Dose [Carcinogen]: 0.5 MG INJECTED IN THE SCAPULAR REGION OF NEWBORN MICE ONCE, Promoter: NONE USED","35%, 55%, -57%, not calculated"
same,"tumour outcome (control, treated, inhibition, significance)","Carcinogen: BENZO[A]PYRENE, 50-32-8, Dose [Inhibitor]: 0, 240 MG/KG OF DIET FOR 6 WK (STUDY DURATION: 9 WK), Route [Inhibitor]: ORAL, Species: MOUSE, Strain/Sex: NIGP(S)/MALE, Target Tissue: Type of Lesion: LUNG: ADENOMA, Dose [Carcinogen]: 0.5 MG INJECTED IN THE SCAPULAR REGION OF NEWBORN MICE ONCE, Promoter: NONE USED","48%, 42%, 13%, not calculated"
same,"tumour outcome (control, treated, inhibition, significance)","Carcinogen: N,N-DIMETHYLNITROSAMINE, 62-75-9, Dose [Inhibitor]: 240 MG/KG OF DIET DAILY FOR 3 WK STARTING 2 D AFTER CARCINOGEN TREATMENT AT 6 WK OF AGE AND THEN OBSERVED UNTIL DEATH (S, Route [Inhibitor]: ORAL, Species: RAT, Strain/Sex: WISTAR/FEMALE, Target Tissue: Type of Lesion: KIDNEY: MESENCHYMAL TUMOR, Dose [Carcinogen]: 40 MG/KG BW ONCE, Promoter: NONE USED","22/27 (82%), 27/32 (84%), -2%, not significant"
same,"tumour outcome (control, treated, inhibition, significance)","Carcinogen: N,N-DIMETHYLNITROSAMINE, 62-75-9, Dose [Inhibitor]: 240 MG/KG OF DIET DAILY FOR 3 WK STARTING 2 D AFTER CARCINOGEN TREATMENT AT 6 WKOF AGE AND THEN OBSERVED UNTIL DEATH (ST, Route [Inhibitor]: ORAL, Species: RAT, Strain/Sex: WISTAR/FEMALE, Target Tissue: Type of Lesion: KIDNEY: EPITHELIAL TUMOR (ADENOMA, ADENOCARCINOMA), Dose [Carcinogen]: 40 MG/KG BW ONCE, Promoter: NONE USED","13/27 (48%), 17/32 (53%), -10%, not significant"
same,"tumour outcome (control, treated, inhibition, significance)","Carcinogen: N,N-DIMETHYLNITROSAMINE, 62-75-9, Dose [Inhibitor]: 240 MG/KG OF DIET DAILY FOR 10 WK STARTING 2 D AFTER CARCINOGEN TREATMENT AT 6 WK OF AGE AND THEN OBSERVED UNTIL DEATH (, Route [Inhibitor]: ORAL, Species: RAT, Strain/Sex: WISTAR/FEMALE, Target Tissue: Type of Lesion: KIDNEY: EPITHELIAL TUMOR (ADENOMA, ADENOCARCINOMA), Dose [Carcinogen]: 40 MG/KG BW ONCE, Promoter: NONE USED","13/27 (48%), 11/29 (38%), 21%, not significant"
same,"tumour outcome (control, treated, inhibition, significance)","Carcinogen: N,N-DIMETHYLNITROSAMINE, 62-75-9, Dose [Inhibitor]: 240 MG/KG OF DIET DAILY FOR 26 WK STARTING 2 D AFTER CARCINOGEN TREATMENT AT 6 WK OF AGE AND THEN OBSERVED UNTIL DEATH (, Route [Inhibitor]: ORAL, Species: RAT, Strain/Sex: WISTAR/FEMALE, Target Tissue: Type of Lesion: KIDNEY: EPITHELIAL TUMOR (ADENOMA, ADENOCARCINOMA), Dose [Carcinogen]: 40 MG/KG BW ONCE, Promoter: NONE USED","13/27 (48%), 11/21 (52%), -8%, not significant"
same,"tumour outcome (control, treated, inhibition, significance)","Carcinogen: N,N-DIMETHYLNITROSAMINE, 62-75-9, Dose [Inhibitor]: 240 MG/KG OF DIET DAILY FOR 26 WK STARTING 2 D AFTER CARCINOGEN TREATMENT AT 6 WK OF AGE AND THEN OBSERVED UNTIL DEATH (, Route [Inhibitor]: ORAL, Species: RAT, Strain/Sex: WISTAR/FEMALE, Target Tissue: Type of Lesion: KIDNEY: MESENCHYMAL TUMOR, Dose [Carcinogen]: 40 MG/KG BW ONCE, Promoter: NONE USED","22/27 (82%), 21/21 (100%), -22%, not significant"
same,"tumour outcome (control, treated, inhibition, significance)","Carcinogen: N-(4-(5-NITRO-2-FURYL)-2-THIAZOLYL)FORMAMIDE, 24554-26-5, Dose [Inhibitor]: 120 MG/KG DIET DAILY STARTING 1 WK AFTER COMPLETION OF CARCINOGEN TREATMENT AND CONTINUING UNTIL END OF STUDY (STUDY DUR, Route [Inhibitor]: ORAL, Species: RAT, Strain/Sex: F344/FEMALE, Target Tissue: Type of Lesion: URINARY BLADDER: CARCINOMA, Dose [Carcinogen]: 2 G/KG DIET DAILY FOR 10 WK, Promoter: NONE USED","36/100 (36%), 42/100 (42%), -17%, p 0.135"
